Reference: the NIST ThermoML archive (doi:10.1016/j.jct.2018.01.025)

Details: Liquid; for mass density: Vibrating tube method

CCCC[n+]1cccc(C)c1.O=S(=O)([N-]S(=O)(=O)C(F)(F)F)C(F)(F)F
Details | viscosity [mPa·s]
323.15 K, 25000 kPa, Falling or rolling sphere viscometry | 32
323.15 K, 50000 kPa, Falling or rolling sphere viscometry | 41.6
323.15 K, 75000 kPa, Falling or rolling sphere viscometry | 53.5
323.15 K, 100000 kPa, Falling or rolling sphere viscometry | 68.5
328.15 K, 101.33 kPa, Concentric cylinders viscometry | 20.87
333.15 K, 101.33 kPa, Concentric cylinders viscometry | 17.97
333.15 K, 10000 kPa, Falling or rolling sphere viscometry | 20
333.15 K, 15000 kPa, Falling or rolling sphere viscometry | 20.8
333.15 K, 25000 kPa, Falling or rolling sphere viscometry | 22.8
333.15 K, 50000 kPa, Falling or rolling sphere viscometry | 29.2
333.15 K, 75000 kPa, Falling or rolling sphere viscometry | 37.2
333.15 K, 100000 kPa, Falling or rolling sphere viscometry | 46.3
338.15 K, 101.33 kPa, Concentric cylinders viscometry | 15.61
343.15 K, 101.33 kPa, Concentric cylinders viscometry | 13.68
343.15 K, 10000 kPa, Falling or rolling sphere viscometry | 14.8
343.15 K, 15000 kPa, Falling or rolling sphere viscometry | 15.7
343.15 K, 25000 kPa, Falling or rolling sphere viscometry | 17.4
343.15 K, 50000 kPa, Falling or rolling sphere viscometry | 21.7
343.15 K, 75000 kPa, Falling or rolling sphere viscometry | 26.7
343.15 K, 100000 kPa, Falling or rolling sphere viscometry | 33.2
348.15 K, 101.33 kPa, Concentric cylinders viscometry | 12.07
353.15 K, 101.33 kPa, Concentric cylinders viscometry | 10.78
353.15 K, 10000 kPa, Falling or rolling sphere viscometry | 11.5
353.15 K, 15000 kPa, Falling or rolling sphere viscometry | 12.1
353.15 K, 25000 kPa, Falling or rolling sphere viscometry | 13.2
353.15 K, 50000 kPa, Falling or rolling sphere viscometry | 16.4
353.15 K, 75000 kPa, Falling or rolling sphere viscometry | 20.2
353.15 K, 100000 kPa, Falling or rolling sphere viscometry | 24.8
358.15 K, 101.33 kPa, Concentric cylinders viscometry | 9.59
363.15 K, 101.33 kPa, Concentric cylinders viscometry | 8.63
368.15 K, 101.33 kPa, Concentric cylinders viscometry | 7.8
373.15 K, 101.33 kPa, Concentric cylinders viscometry | 7.09

101.33 kPa
Details | mass density [kg/m3]
328.15 K | 1385.4
333.15 K | 1380.9
338.15 K | 1376.4
343.15 K | 1372
348.15 K | 1367.5
353.15 K | 1362.9
358.15 K | 1358.3
363.15 K | 1353.9
368.15 K | 1349.6
373.15 K | 1345.4
